Laboratory results reported in paper PMC8157947, “Peptidic boronic acids are potent cell-permeable inhibitors of the malaria parasite egress serine protease SUB1” (Proceedings of the National Academy of Sciences of the …, 2021).
Where “and” joins values, the source holds several entries; their conditions need not be identical. Identical values can stand only once. Entries after “also recorded” stand apart in the source; their conditions may differ. Like-named read-outs stand apart in the source and are kept apart here. One block for each molecule: values may come before it.

Columns and labels:
[1] = target: T1, recombinant PfSUB1 (rPfSUB1) (Plasmodium falciparum, UniProt Q8I0V0); assay: rPfSUB1 fluorogenic peptide substrate cleavage inhibition assay; type: biochemical
T1 construct: Chymotrypsin-treated rPfSUB1 (expressed and purified as described previously); made in house
Source text: We previously described the development of a fluorescence-based in vitro assay suitable for the evaluation of substrate-based PfSUB1 inhibitors, using recombinant PfSUB1 (rPfSUB1) and fluorogenic peptide substrates based on cleavage sites within endogenous protein substrates of PfSUB1 ([13], [21]). […] This was perhaps unsurprising due to the high molecular mass and polar nature of these compounds, including the presence of a carboxylic acid moiety that was designed to mimic endogenous PfSUB1 protein substrates by interacting with the basic S’ surface of the PfSUB1 active-site cleft ([16]). Collectively, these features likely rendered the compounds poorly membrane penetrant.
Fluorescence of this peptide is quenched by rhodamine dimerization in the intact substrate but increases upon cleavage at the internal Q-D bond. Chymotrypsin-treated rPfSUB1 (expressed and purified as described previously ([16]) was stored at −80 °C as a 228 U/mL stock in 20 mM Tris–HCl pH 8.2, 150 mM NaCl, 10% glycerol, and diluted for use (1:500 or 1:600) in reaction buffer (20 mM Tris–HCl pH 8.2, 150 mM NaCl, 12 mM CaCl2, 25 mM CHAPS). Peptidic boronic acid inhibitors were dissolved in 100% DMSO at 10 or 20 mM, then further diluted in DMSO to generate stock solutions ranging from 500 to 0.01 μM and then used diluted 1:100 in the enzyme reactions. All reactions were performed in wells of white 96-well microwell plates (Nunc); 50 μL diluted rPfSUB1 was preincubated for 5 min with 1 μL each of the serially diluted boronic acid inhibitors, followed by addition of 50 μL substrate solution (0.1 μM final). Subsequent fluorescence increase was continuously monitored using a SpectraMax M5e plate reader and SoftMax Pro-6.3 software, with readings taken every 5 min for 60 min using excitation and emission values of 552 and 580 nm, respectively. […] All experiments were performed in duplicate.

[2] = system: asexual blood-stage P. falciparum (clone 3D7); assay: SYBR Green I parasite growth assay; type: cell-based, Plasmodium falciparum; conditions: for EC50: Plasmodium falciparum, 3D7, 96 h, two erythrocytic growth cycles, SYBR Green I
Description: The impact of the peptidic boronic acids on replication of asexual blood-stage P. falciparum (clone 3D7) was assessed using a SYBR Green I assay, essentially as described by Smilkstein et al. ([22]). Briefly, test compounds (dissolved in dimethyl sulfoxide [DMSO] at concentrations ranging from 4 mM to 5 μM) were added in triplicate to wells of flat bottomed, 96-well microtitre plates (1 μL per well). Wells were then supplemented with 100 μL per well of a P. falciparum parasite culture at 0.1% parasitaemia, 1% hematocrit. Each assay plate also included DMSO-only control wells (1% vol/vol), as well as additional control wells containing uninfected RBCs only. Plates were incubated in sealed, humidified gassed chambers at 37 °C for 96 h to allow the parasites to undergo two entire cycles of erythrocytic growth. Wells were then supplemented with 100 μL 1:5,000 dilution of stock SYBR Green I (Life Technologies, catalog no. S7563) diluted in 20 mM Tris HCl pH 7.5, 5 mM EDTA, 0.008% (weight/vol) saponin, 0.08% (vol/vol) Triton ×100. Plates were agitated to mix, incubated for a further 1 h in the dark at room temperature, then 150 μL samples from each well transferred to a fresh white microwell plate and fluorescence quantified using a SpectraMax M5e plate reader and SoftMax Pro-6.3 software (Ex 485 nm/Em 530 nm). IC50 values were determined from dose–response curves obtained after subtracting background fluorescence values (obtained from the RBC-only wells) from all experimental readings.

[3] = system: P. falciparum 3D7 schizonts; assay: Short-term egress/invasion assay, ring formation by flow cytometry; type: cell-based, Plasmodium falciparum; conditions: for EC50: Plasmodium falciparum, mature 3D7 schizonts with RBCs, 4 h, flow cytometry
Description: For this, P. falciparum cultures containing synchronous, highly mature schizonts were supplemented with compounds 3b, 3e, 3i, and 3j at a range of dilutions, then allowed to undergo egress and invasion for just 4 h in the continued presence of the compounds, before assessing formation of newly invaded “ring” stage parasites by flow cytometry.
(§1) Short-term egress, invasion, and washout assays were performed essentially as described previously ([27], [28], [42]). Briefly, highly synchronous mature Percoll-enriched schizonts with or without added fresh RBCs (∼5% parasitaemia final) were incubated with compounds under test or vehicle only (DMSO, 1% vol/vol). For washout assays, schizonts were treated with C2 or various concentrations of inhibitor 3j for 1 to 4 h, then washed extensively (at least four times) prior to addition to fresh RBCs where required. After incubation at 37 °C for just 1 to 4 h (or overnight for invasion assays) to allow schizont rupture, cells were pelleted. Clarified culture supernatants were assessed for extent of hemoglobin release (a measure of schizont rupture) by absorption spectroscopy at 415 nm as described previously ([28]) or analyzed by Western blot using antibodies against SERA5 ([7], [11]). To quantify generation of new rings, samples of the cultures were fixed with 4% paraformaldehyde/0.02% glutaraldehyde and stained with SYBR Green I (Life Technologies) and then analyzed by flow cytometry on a BD FACSVerse using BD FACSuite software. Data were analyzed using FlowJo software. All cultures were also routinely analyzed by microscopic examination of Giemsa-stained thin films to visually assess parasite morphology.

[4] = system: P. falciparum schizonts expressing EXP2-mNeonGreen; assay: Time-lapse video microscopy of egress after compound washout; type: cell-based, Plasmodium falciparum; conditions: 1 μM
P. falciparum schizonts = assay: Ring formation after pretreatment of schizonts and washout; type: cell-based, Plasmodium falciparum; conditions: pretreated schizonts washed, fresh RBCs, assessed at 24 h; 3j 10 μM, C2 1 μM
Description: as §1

[5] = system: PfSUB1-mediated proteolytic processing of SERA5; assay: Western blot of SERA5 processing after washout; type: cell-based, Plasmodium falciparum; conditions: 4 h pretreatment then washout
Source text: To seek unambiguous confirmation that PfSUB1 is the intracellular target of compound 3j, we examined the effects of the compound on the PfSUB1-mediated proteolytic processing of the established endogenous PfSUB1 substrate SERA5, an abundant parasite PV protein that only becomes accessible to cleavage upon discharge of PfSUB1 into the PV in the minutes leading up to egress and is then released in a processed form into culture supernatants ([6], [11], [12]). […] It was concluded that compound 3j prevents egress and parasite proliferation through direct inhibition of intracellular PfSUB1.
Short-term egress, invasion, and washout assays were performed essentially as described previously ([27], [28], [42]). […] Clarified culture supernatants were assessed for extent of hemoglobin release (a measure of schizont rupture) by absorption spectroscopy at 415 nm as described previously ([28]) or analyzed by Western blot using antibodies against SERA5 ([7], [11]). To quantify generation of new rings, samples of the cultures were fixed with 4% paraformaldehyde/0.02% glutaraldehyde and stained with SYBR Green I (Life Technologies) and then analyzed by flow cytometry on a BD FACSVerse using BD FACSuite software. Data were analyzed using FlowJo software. All cultures were also routinely analyzed by microscopic examination of Giemsa-stained thin films to visually assess parasite morphology.

[6] = target: T1, recombinant PfSUB1 (rPfSUB1); conditions: cited from earlier work
[7] = system: asexual blood-stage P. falciparum (clone 3D7); design: method as in PMID 22543039, PMID 25129616; conditions: earlier work; cited from earlier work
[8] = design: method as in PMID 30117017; conditions: cited from earlier work
[9] = fluorogenic peptide substrate, mean ± SD of at least three measurements, read-out: IC50 (nM) (rPfSUB1)

T1 sequence (Q8I0V0 218-688): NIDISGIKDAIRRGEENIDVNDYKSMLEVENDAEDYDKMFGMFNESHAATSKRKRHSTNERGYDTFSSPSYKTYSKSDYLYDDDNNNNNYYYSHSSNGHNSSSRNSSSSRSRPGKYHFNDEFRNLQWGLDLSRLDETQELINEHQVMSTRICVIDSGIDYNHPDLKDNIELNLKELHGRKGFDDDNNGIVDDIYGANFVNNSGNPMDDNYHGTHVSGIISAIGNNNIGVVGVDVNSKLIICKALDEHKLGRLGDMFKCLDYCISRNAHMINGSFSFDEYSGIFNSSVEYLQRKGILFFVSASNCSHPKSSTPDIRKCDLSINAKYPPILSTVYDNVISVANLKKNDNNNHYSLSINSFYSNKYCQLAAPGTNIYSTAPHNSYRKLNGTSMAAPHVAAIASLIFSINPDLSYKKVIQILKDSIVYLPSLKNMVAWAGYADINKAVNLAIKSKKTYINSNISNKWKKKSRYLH

SMILES: CC(=O)N[C@H](C(=O)N[C@H](C(=O)NCC(=O)NC(C)C(=O)C(=O)NCCC(=O)O)[C@@H](C)O)C1CCCC1 (stereo partly shown) [2a]
- IC50 ([1]; IC50(PfSUB1), Fig. 1): 400 nM
- IC50 ([1]; IC50 (nM) (rPfSUB1), fluorogenic peptide substrate, mean ± SD of at least three measurements): ~370 nM and 370 nM
- inhibition at 10 µM ([1]; read-out: degree of rPfSUB1 inhibition at 10 µM (%)): 97%
- activity in parasite growth assay [2]: no activity in parasite growth assay

- IC50 [1, 9]: 69.4 ± 1.2 nM
SMILES: CCC(C)[C@H](NC(C)=O)C(=O)N[C@H](C(=O)NCC(=O)N[C@@H](C)B(O)O)[C@@H](C)O (stereo partly shown) [3a]
- EC50 [2]: 1.8 ± 0.6 µM

- IC50 [1, 9]: 9.3 ± 0.5 nM
- EC50 [3]: 12700 ± 800 nM
SMILES: CC(=O)NC(C(=O)NC(C(=O)NCC(=O)NC(C)B(O)O)C(C)O)C1CCCC1 (stereo not shown) [3b]
- EC50 [2]: 2.3 ± 1.4 µM

- IC50 [1, 9]: 60.1 ± 2.1 nM
SMILES: CC(=O)N[C@H](C(=O)N[C@H](C(=O)NCC(=O)N[C@H](C)B(O)O)[C@@H](C)O)C1CCCC1 [3c]
- EC50 [2]: 18.4 ± 1.8 µM

- IC50 [1, 9]: 54.3 ± 1.1 nM
SMILES: CC(=O)N[C@H](C(=O)N[C@H](C(=O)NCC(=O)NCB(O)O)[C@@H](C)O)C1CCCC1 [3d]
- EC50 [2]: 1.9 ± 0.4 µM

- IC50 [1, 9]: 4.6 ± 0.1 nM
- EC50 [3]: 15700 ± 2500 nM
SMILES: CC(=O)N[C@H](C(=O)N[C@H](C(=O)NCC(=O)N[C@H]1CCOB1O)[C@@H](C)O)C1CCCC1 [3e]
- EC50 [2]: 15 ± 3.6 µM

- IC50 [1, 9]: 204 ± 7.5 nM
SMILES: CC(=O)N[C@H](C(=O)N[C@H](C(=O)NCC(=O)N[C@H]1CCCOB1O)[C@@H](C)O)C1CCCC1 [3f]

SMILES: CC(=O)N[C@H](C(=O)N[C@H](C(=O)NCC(=O)N[C@H]1CCC(=O)OB1O)[C@@H](C)O)C1CCCC1 [3g]
- IC50 [1, 9]: 18.7 ± 1.3 nM

- IC50 [1, 9]: 112 ± 2.3 nM
SMILES: CC(=O)N[C@H](C(=O)N[C@H](C(=O)NCC(=O)NC(B(O)O)c1ccccc1)[C@@H](C)O)C1CCCC1 (stereo partly shown) [3h]

- IC50 [1, 9]: ~7.8 nM and 7.8 nM
- EC50 [3]: 2000 ± 100 nM
SMILES: CC(=O)N[C@H](C(=O)N[C@@H](C)C(=O)NCC(=O)N[C@@H](C)B(O)O)C1CCCC1 [3i]
- EC50 [2]: 0.34 ± 0.08 µM
- improved growth inhibitory potency ([2]; relative to compound 3b): ~10 fold
- schizont phenotype in Giemsa-stained thin films ([3]; 10 μM, 4 h incubation): arrest of unruptured schizonts with no ring formation

SMILES: CN(C)Cc1ccn2c(-c3ccnc(N)n3)c(-c3ccc(F)cc3)nc2c1 [C2, 4-[7-[(dimethylamino)methyl]-2-(4-fluorphenyl)imidazo[1,2-α]pyridine-3-yl]pyrimidin-2-amine, reference compound]
- time of egress initiation following washout [4]: ~6.5 min
- ring production after washout (P. falciparum schizonts): produced rings efficiently
- SERA5 proteolytic processing [5]: blocked

SMILES: CC(=O)N[C@H](C(=O)N[C@H](C(=O)NCC(=O)NC(C)C(=O)C(=O)NCCC(=O)O)[C@@H](C)O)C(C)C (stereo partly shown) [compound 1]
- IC50 ([6]; Table S1): 900 ± 200 nM
- IC50 ([6]; earlier work): ~900 nM
- antiparasite activity in vitro / parasite growth assay [7]: no antiparasite activity in vitro; also recorded: no activity in parasite growth assay

SMILES: CC(C)C[C@H](NC(=O)CNC(=O)c1cc(Cl)ccc1Cl)B(O)O [ixazomib]
- terminal half-life [8]: ~228 h
